Reference: the CheMixHub ionic liquid set

Assay: xn = mol fraction of the nth substance listed

CCCC[n+]1ccc(C)cc1.[Br-] + CO/N=C(\C(=O)N[C@@H]1C(=O)N2C(C(=O)[O-])=C(CSc3nc(=O)c(=O)[n-]n3C)CS[C@H]12)c1csc(N)n1.[Na+].[Na+] + O
viscosity [mPa·s], 100 kPa
Details	288.15 K	293.15 K	298.15 K	303.15 K	308.15 K
x2 = 0, x1 = 0.0007903	1.165	1.024	0.907	0.813	0.734
x2 = 0, x1 = 0.001191	1.176	1.037	0.919	0.824	0.745
x2 = 0, x1 = 0.001595	1.195	1.044	0.926	0.833	0.75
x2 = 0.0008523, x1 = 0.0007896	1.293	1.134	0.998	0.892	0.805
x2 = 0.0008581, x1 = 0.00119	1.321	1.176	1.024	0.918	0.827
x2 = 0.001389, x1 = 0.0007891	1.39	1.219	1.077	0.965	0.863
x2 = 0.001401, x1 = 0.001593	1.423	1.241	1.103	0.989	0.884
x2 = 0.001946, x1 = 0.0007887	1.504	1.31	1.157	1.035	0.931
x2 = 0.001971, x1 = 0.001189	1.511	1.342	1.183	1.055	0.948
x2 = 0.001975, x1 = 0.001592	1.545	1.355	1.192	1.065	0.954
x2 = 0.002543, x1 = 0.0007882	1.632	1.427	1.256	1.12	1.007
x2 = 0.002544, x1 = 0.001591	1.673	1.464	1.295	1.152	1.031
x2 = 0.003109, x1 = 0.001187	1.806	1.567	1.379	1.224	1.096
x2 = 0.003138, x1 = 0.0007878	1.767	1.543	1.364	1.213	1.086
x2 = 0.003151, x1 = 0.00159	1.823	1.589	1.399	1.244	1.113
x2 = 0.003944, x1 = 0.001186	2.024	1.764	1.544	1.369	1.222
x2 = 0.003953, x1 = 0.0007871	1.993	1.729	1.519	1.351	1.208
x2 = 0.003986, x1 = 0.001589	2.106	1.787	1.577	1.395	1.245
x2 = 0.004811, x1 = 0.001588	2.346	2.022	1.772	1.562	1.389
x2 = 0.004834, x1 = 0.0007864	2.266	1.959	1.718	1.524	1.35
x2 = 0.004855, x1 = 0.001185	2.32	2.01	1.757	1.552	1.38
x2 = 0.005536, x1 = 0.0007859	2.52	2.173	1.904	1.68	1.492
x2 = 0.005537, x1 = 0.001184	2.56	2.232	1.937	1.706	1.514
x2 = 0.005566, x1 = 0.001586	2.63	2.267	1.983	1.738	1.544

CCCCn1cc[n+](C)c1C.O=S(=O)([N-]S(=O)(=O)C(F)(F)F)C(F)(F)F + COC(=O)OC
viscosity [mPa·s], 101.3 kPa
Details	288.15 K	293.15 K	298.15 K	303.15 K	308.15 K	313.15 K
x1 = 0.003134	0.698	0.653	0.611	0.575	0.541	0.511
x1 = 0.003617	0.704	0.658	0.615	0.579	0.544	0.513
x1 = 0.004671	0.717	0.669	0.626	0.588	0.553	0.522
x1 = 0.005144	0.722	0.674	0.63	0.592	0.557	0.525
x1 = 0.007528	0.753	0.701	0.655	0.614	0.578	0.544
x1 = 0.008467	0.763	0.711	0.664	0.622	0.585	0.551
x1 = 0.01016	0.786	0.731	0.682	0.639	0.6	0.564
x1 = 0.01046	0.789	0.734	0.685	0.641	0.602	0.566
x1 = 0.01168	0.805	0.748	0.697	0.653	0.612	0.577
x1 = 0.01411	0.833	0.773	0.721	0.674	0.632	0.597
x1 = 0.01541	0.85	0.788	0.734	0.685	0.643	0.604
x1 = 0.01579	0.854	0.791	0.738	0.688	0.645	0.606
x1 = 0.01626	0.86	0.798	0.743	0.693	0.651	0.61
x1 = 0.01704	0.87	0.807	0.751	0.7	0.657	0.616
x1 = 0.01948	0.898	0.832	0.773	0.722	0.675	0.634
x1 = 0.01969	0.901	0.834	0.775	0.723	0.677	0.635
x1 = 0.02378	0.947	0.876	0.813	0.758	0.709	0.665
x1 = 0.02412	0.949	0.878	0.816	0.76	0.711	0.667
x1 = 0.02675	0.977	0.903	0.838	0.781	0.731	0.684
x1 = 0.02717	0.98	0.907	0.842	0.784	0.734	0.688
x1 = 0.03309	1.044	0.964	0.894	0.833	0.778	0.729
x1 = 0.03594	1.073	0.99	0.918	0.855	0.798	0.748
x1 = 0.03715	1.086	1.002	0.929	0.864	0.807	0.756
x1 = 0.0405	1.117	1.031	0.957	0.89	0.83	0.777
x1 = 0.04889	1.211	1.117	1.034	0.96	0.895	0.837

O=S(=O)([N-]S(=O)(=O)C(F)(F)F)C(F)(F)F.[Li+] + COC(=O)OC
298.1 K, 100 kPa, x1 = 0.333
Details	electrical conductivity [S/m]	viscosity [mPa·s]
–	0.12	53.7

O=S(=O)([N-]S(=O)(=O)C(F)(F)F)C(F)(F)F.[Li+] + COC(=O)OC + CCC1COC(=O)O1
Details	viscosity [mPa·s]
298.15 K, 100 kPa, x1 = 0.333, x2 = 0.667	53.7

O=S(=O)([N-]S(=O)(=O)C(F)(F)F)C(F)(F)F.[Li+] + COC(=O)OC + CCC(=O)OC
Details	viscosity [mPa·s]
298.15 K, 100 kPa, x1 = 0.333, x2 = 0.667	53.7

CCCCCCCCCCCCCC[P+](CCCCCC)(CCCCCC)CCCCCC.O=[N+]([O-])c1c[n-]cn1 + COCCOCCOCCOCCOC
viscosity [mPa·s], 100 kPa
Details	278.15 K	283.15 K	303.15 K
x2 = 0.189	1503	1036	–
x2 = 0.404	–	–	107

O=S(=O)([N-]S(=O)(=O)C(F)(F)F)C(F)(F)F.[Li+] + COCCOCCOCCOCCOC
Details	electrical conductivity [S/m]
293 K, 100 kPa, frequency 0.05 MHz, x1 = 0.143	0.235

CC(N)C(=O)[O-].COCCCCn1cc[n+](C)c1 + CS(C)=O
100 kPa
Details	viscosity [mPa·s]
288.15 K, x1 = 0.1996	11.74
288.15 K, x1 = 0.3012	22.04
288.15 K, x1 = 0.5996	96.5
288.15 K, x1 = 0.8997	304
293.15 K, x1 = 0.1996	11.35
293.15 K, x1 = 0.3012	19.11
293.15 K, x1 = 1	266
298.15 K, x1 = 0.1996	8.85
303.15 K, x1 = 0.1996	7.37
303.15 K, x1 = 0.5996	41.72
308.15 K, x1 = 0.3985	16.23
308.15 K, x1 = 0.5996	33.51
308.15 K, x1 = 0.6966	44.96
308.15 K, x1 = 0.7973	60.65
313.15 K, x1 = 0.6966	36.01
318.15 K, x1 = 0.1009	3.18
318.15 K, x1 = 0.4922	15.18
318.15 K, x1 = 0.5996	21.68
318.15 K, x1 = 0.7973	37.1
